# Reference: patent US20230356105A1, “TETRAAZADODECANE BASED CHELATING AGENTS FOR SEPARATION OF RARE EARTH ELEMENTS AND METHOD THEREFOR” (Ustav Organicke Chemie a Biochemie AV CR V.V.I., priority 2020, published 2023)
# Where “and” joins values, the source holds several entries; their conditions need not be identical. Equal entries are not always repeated.
# Key:
# Type in all cases: physicochemical
# [1] = Use of additives to improve separation of Nd/Dy mixture by precipitation with L5 (Example 18); conditions: 11 mM L5
# Method: Stock solutions were pipetted into plastic 1×1 cm cuvettes to prepare reaction mixtures with concentrations as follows: • 1. […] 5 mM NdCl3 • 3. 5 mM DyCl3 • 4. 500 mM MOPS pH=7 • 5. the additive of interest, in a variable concentration; if possible, stock solutions were prepared from Na^+ salt forms of the compound; if not, the stock solutions were titrated by NaOH/HCl to pH=7 prior to addition (see Table 12 for additives and concentrations)
# These aqueous reaction mixtures, each prepared to a total volume of 2.0 mL with the addition of water as necessary, were mixed by the use of a PTFE-coated stir bar on a magnetic stirrer. The cuvettes were sealed with transparent tape to prevent evaporation overnight. The reaction mixtures were stirred for 18 hours, at which point 500 μL aliquots of each reaction mixture were transferred into plastic 2 mL Eppendorf tubes and centrifuged. The supernatants were carefully pipetted out and transferred to a new set of tubes. The precipitate was dissolved by addition of 500 μL 1M HCl. The absolute concentration of Nd and Dy in each supernatant and precipitate was determined by ICP-OES.
# [2] = Separation of Y/Tb mixture by repeated precipitation using L2 (Example 14); conditions: for Precipitate concentration [mM] Tb / Precipitate concentration [mM] Y: dissolved to 200 μL
# Method: The experiment was conducted according to Example 11) with 9 identical reaction mixtures containing Y, Tb, and compound L2. The experimental procedure was identical to that of Example 11). The resulting absolute concentrations of both metals in the supernatants and precipitates, as well as calculated values of separation factor Y/Tb according to the formula from Example 11), are summarized in Table 8. The average separation factor value was 3.34.
# [3] = Separation of industrially relevant binary mixtures by precipitation using L1, L2 and L3 (Example 10); conditions: supernatant
# Method: Analogous to Example 7), three sets of reaction mixtures with two metals and either compound L1, L2, or L3 were prepared in a 96-well plate with the following differences: each well was equipped with one PTFE-coated magnetic stir bar, the well plate was sealed with a silicon cover, and the reaction mixtures were stirred on a magnetic stirrer for 2 days at room temperature. Analogous to Example 7), the well plate was then centrifuged and concentrations of the metals were determined using ICP-OES. […] It is evident from the results that certain degrees of enrichment are achieved for very different combinations of metals, and that ligands L1, L2, and L3 have different selectivities for given combinations of metals.
# [4] = group A, 1st precipitation, mean
# [5] = group B, 2nd precipitation, mean
compound,measurement,setting,value
F [fluoride],Precipitate concentration [mM] Dy,[1]; additive 5 mM,4.87 mM
same,Precipitate concentration [mM] Nd,[1]; additive 5 mM,6.21 mM
same,Supernatant concentration [mM] Dy,[1]; additive 5 mM,1.21 mM
same,Supernatant concentration [mM] Nd,[1]; additive 5 mM,0.13 mM
same,Precipitate concentration [mM] Dy,[1]; additive 10 mM,3.82 mM
same,Precipitate concentration [mM] Nd,[1]; additive 10 mM,6.15 mM
same,Supernatant concentration [mM] Dy,[1]; additive 10 mM,2.34 mM
same,Supernatant concentration [mM] Nd,[1]; additive 10 mM,0.18 mM
same,Precipitate concentration [mM] Dy,[1]; additive 15 mM,2.72 mM
same,Precipitate concentration [mM] Nd,[1]; additive 15 mM,5.68 mM
same,Supernatant concentration [mM] Dy,[1]; additive 15 mM,3.26 mM
same,Supernatant concentration [mM] Nd,[1]; additive 15 mM,0.49 mM
O=C(O)[C@@H](O)c1ccccc1 [s-mandelic acid],Precipitate concentration [mM] Dy,[1]; additive 20 mM,1.13 mM
same,Precipitate concentration [mM] Nd,[1]; additive 20 mM,4.52 mM
same,Supernatant concentration [mM] Dy,[1]; additive 20 mM,3.77 mM
same,Supernatant concentration [mM] Nd,[1]; additive 20 mM,0.47 mM
O=C(O)CC(O)(CC(=O)O)C(=O)O [citrate],Precipitate concentration [mM] Dy,[1]; additive 1 mM,4.03 mM
same,Precipitate concentration [mM] Nd,[1]; additive 1 mM,4.30 mM
same,Supernatant concentration [mM] Dy,[1]; additive 1 mM,0.38 mM
same,Supernatant concentration [mM] Nd,[1]; additive 1 mM,0.14 mM
same,Precipitate concentration [mM] Dy,[1]; additive 5 mM,3.62 mM
same,Precipitate concentration [mM] Nd,[1]; additive 5 mM,4.77 mM
same,Supernatant concentration [mM] Dy,[1]; additive 5 mM,1.24 mM
same,Supernatant concentration [mM] Nd,[1]; additive 5 mM,0.19 mM
same,Precipitate concentration [mM] Dy,[1]; additive 10 mM,2.38 mM
same,Precipitate concentration [mM] Nd,[1]; additive 10 mM,4.49 mM
same,Supernatant concentration [mM] Dy,[1]; additive 10 mM,2.27 mM
same,Supernatant concentration [mM] Nd,[1]; additive 10 mM,0.25 mM
same,Precipitate concentration [mM] Dy,[1]; additive 20 mM,1.21 mM
same,Precipitate concentration [mM] Nd,[1]; additive 20 mM,4.08 mM
same,Supernatant concentration [mM] Dy,[1]; additive 20 mM,3.52 mM
same,Supernatant concentration [mM] Nd,[1]; additive 20 mM,0.66 mM
"O=C(O)CN1CCNCCN(CC(=O)O)CCN(Cc2cc([N+](=O)[O-])ccc2O)CC1 [L2, 2,2′(4-(2-hydroxy-5-nitrobenzyl)-1,4,7,10-tetraazacyclododecane-1,7-diyl)Diacetic Acid]",Supernatant concentration [mM] Tb,"[2]; group A, 1st precipitation",1.70 mM and 1.85 mM and 1.74 mM
same,Supernatant concentration [mM] Y,"[2]; group A, 1st precipitation",4.25 mM and 4.36 mM and 4.12 mM
same,Precipitate concentration [mM] Tb,"[2]; group A, 1st precipitation",8.05 mM and 7.82 mM and 7.70 mM
same,Precipitate concentration [mM] Y,"[2]; group A, 1st precipitation",5.45 mM and 5.23 mM and 5.52 mM
same,Precipitate concentration [mM] Tb,[2]; [4],7.86 mM
same,Precipitate concentration [mM] Y,[2]; [4],5.40 mM
same,Supernatant concentration [mM] Tb,[2]; [4],1.76 mM
same,Supernatant concentration [mM] Y,[2]; [4],4.24 mM
same,Supernatant concentration [mM] Tb,"[2]; group B, 2nd precipitation",0.79 mM and 1.15 mM and 0.97 mM
same,Supernatant concentration [mM] Y,"[2]; group B, 2nd precipitation",1.42 mM and 1.52 mM and 1.48 mM
same,Precipitate concentration [mM] Tb,"[2]; group B, 2nd precipitation",6.95 mM and 5.71 mM and 6.60 mM
same,Precipitate concentration [mM] Y,"[2]; group B, 2nd precipitation",3.87 mM and 2.86 mM and 3.57 mM
same,Precipitate concentration [mM] Tb,[2]; [5],6.42 mM
same,Precipitate concentration [mM] Y,[2]; [5],3.43 mM
same,Supernatant concentration [mM] Y,[2]; [5],1.47 mM
same,[mM] M1,[3]; M1/M2=Eu/Y,1.363 mM
same,[mM] M2,[3]; M1/M2=Eu/Y,2.814 mM
same,[mM] M1,[3]; M1/M2=La/Ce,0.175 mM
same,[mM] M2,[3]; M1/M2=La/Ce,0.158 mM
same,[mM] M1,[3]; M1/M2=Nd/Ce,0.425 mM
same,[mM] M2,[3]; M1/M2=Nd/Ce,0.779 mM
same,[mM] M1,[3]; M1/M2=Nd/Dy,1.757 mM
same,[mM] M2,[3]; M1/M2=Nd/Dy,1.970 mM
same,[mM] M1,[3]; M1/M2=Nd/La,0.263 mM
same,[mM] M2,[3]; M1/M2=Nd/La,0.128 mM
same,[mM] M1,[3]; M1/M2=Nd/Pr,2.303 mM
same,[mM] M2,[3]; M1/M2=Nd/Pr,2.352 mM
same,[mM] M1,[3]; M1/M2=Nd/Tb,1.532 mM
same,[mM] M2,[3]; M1/M2=Nd/Tb,1.438 mM
same,[mM] M1,[3]; M1/M2=Pr/Ce,0.162 mM
same,[mM] M2,[3]; M1/M2=Pr/Ce,0.171 mM
same,[mM] M1,[3]; M1/M2=Pr/Dy,2.417 mM
same,[mM] M2,[3]; M1/M2=Pr/Dy,2.422 mM
same,[mM] M1,[3]; M1/M2=Pr/La,0.172 mM
same,[mM] M2,[3]; M1/M2=Pr/La,0.163 mM
same,[mM] M1,[3]; M1/M2=Tb/Dy,1.054 mM
same,[mM] M2,[3]; M1/M2=Tb/Dy,2.708 mM
same,[mM] M1,[3]; M1/M2=Tb/Eu,1.182 mM
same,[mM] M2,[3]; M1/M2=Tb/Eu,0.956 mM
same,[mM] M1,[3]; M1/M2=Tb/Pr,1.945 mM
same,[mM] M2,[3]; M1/M2=Tb/Pr,2.156 mM
same,[mM] M1,[3]; M1/M2=Tb/Y,1.615 mM
same,[mM] M2,[3]; M1/M2=Tb/Y,2.812 mM
